What was measured:
TgDHOD-VSSM = TgDHOD-VSSM (Toxoplasma gondii, UniProt Q8MXD1); assay: TgDHOD inhibition; assay type: biochemical
[1] = tested on: RH-strain T. gondii tachyzoites; assay: In vivo efficacy, murine model of systemic; set-up: species or system CF-1 mice; details: 20 mg/kg orally once daily, in words
[2] = tested on: T222P strain of T. gondii; assay: microbe, parasite or virus in culture; assay type: cell-based, Toxoplasma gondii
RH-strain T. gondii = assay: T. gondii growth inhibition, RH strain; assay type: cell-based; details: Toxoplasma gondii, read-out: EC50 vs RH (nM)

Structure (SMILES): O=C1C(O)=C([C@H]2CC[C@H](c3ccc(Cl)cc3)CC2)C(=O)c2ccccc21 [ATV, atovaquone]
- Ki (TgDHOD-VSSM): 2720 nM

Structure (SMILES): CCc1nc(N)nc(N)c1-c1ccc(Cl)cc1 [pyrimethamine]
- survival benefit [1]: no survival benefit

Structure (SMILES): COc1cc2[nH]c3cc(Oc4ccc(OC(F)(F)F)cc4)ccc3c(=O)c2cc1F [Compound 27]
- effect of the T222P mutation on potency ([2]; T222P versus RH strain, in words): confers resistance
- EC50 ([2]; Toxoplasma gondii, read-out: EC50 vs T222P (nM)): 5.61 nM
- EC50 (RH-strain T. gondii): 0.63 nM

From PMC8273083 (ACS infectious diseases, 2021)
